Data taken from PubChem BioAssay (NCI).
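Here, GI50 denotes the concentration required for 50% inhibition of growth. The concentration for full growth arrest is given as TGI.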

How the values were obtained:
Assay in all cases: DTP human tumour cell line panel, 384-well format
HOP-62 NSCLC = test system: HOP-62 NSCLC
OVCAR-4 ovarian = test system: OVCAR-4 ovarian
A498 renal = test system: A498 renal
SK-OV-3 ovarian = test system: SK-OV-3 ovarian
UACC-257 melanoma = test system: UACC-257 melanoma
OVCAR-8 ovarian = test system: OVCAR-8 ovarian
SK-MEL-2 melanoma = test system: SK-MEL-2 melanoma
TK-10 renal = test system: TK-10 renal
IGROV1 ovarian = test system: IGROV1 ovarian
COLO 205 colon = test system: COLO 205 colon
SF-268 CNS = test system: SF-268 CNS
SW-620 colon = test system: SW-620 colon
RXF 393 renal = test system: RXF 393 renal
HOP-92 NSCLC = test system: HOP-92 NSCLC
SF-539 CNS = test system: SF-539 CNS
DU-145 prostate = test system: DU-145 prostate
ACHN renal = test system: ACHN renal
PC-3 prostate = test system: PC-3 prostate
K-562 leukemia = test system: K-562 leukemia
MDA-MB-468 breast = test system: MDA-MB-468 breast
RPMI-8226 leukemia = test system: RPMI-8226 leukemia
NCI-H522 lung = test system: NCI-H522 lung
HCC-2998 colon = test system: HCC-2998 colon
BT-549 breast = test system: BT-549 breast
SR leukemia = test system: SR leukemia
SNB-19 CNS = test system: SNB-19 CNS
U251 glioblastoma = test system: U251 glioblastoma
UO-31 renal = test system: UO-31 renal
NCI-H460 NSCLC = test system: NCI-H460 NSCLC
OVCAR-5 ovarian = test system: OVCAR-5 ovarian
NCI-H322M lung = test system: NCI-H322M lung
NCI-H226 lung = test system: NCI-H226 lung
UACC-62 melanoma = test system: UACC-62 melanoma
LOX IMVI melanoma = test system: LOX IMVI melanoma
KM12 colon = test system: KM12 colon
A549 NSCLC = test system: A549 NSCLC
MALME-3M melanoma = test system: MALME-3M melanoma
SN12C renal = test system: SN12C renal
SK-MEL-5 melanoma = test system: SK-MEL-5 melanoma
SK-MEL-28 melanoma = test system: SK-MEL-28 melanoma
CCRF-CEM leukemia = test system: CCRF-CEM leukemia
M14 melanoma = test system: M14 melanoma
MDA-MB-231 breast = test system: MDA-MB-231 breast
786-0 renal = test system: 786-0 renal
HT29 colon = test system: HT29 colon
HCT-116 colon = test system: HCT-116 colon
HCT-15 colon = test system: HCT-15 colon
CAKI-1 renal = test system: CAKI-1 renal
HL-60(TB) leukemia = test system: HL-60(TB) leukemia
MOLT-4 leukemia = test system: MOLT-4 leukemia
MCF7 breast = test system: MCF7 breast
NCI/ADR-RES ovarian = test system: NCI/ADR-RES ovarian
MDA-MB-435 melanoma = test system: MDA-MB-435 melanoma

Cc1c(F)c(N)c2c(=O)cc(-c3ccc(NC(=O)[C@@H](N)CCCCN)c(F)c3)oc2c1F showed a GI50 (HOP-62 NSCLC) of 9.12 µM, a TGI (HOP-62 NSCLC) of 21.5 µM and a GI50 (OVCAR-4 ovarian) of 8.64 µM. For the same compound, the TGI (OVCAR-4 ovarian) was 21 µM, the GI50 (A498 renal) was 0.0368 µM and the TGI (A498 renal) was 0.182 µM. The GI50 (SK-OV-3 ovarian) was 3.17 µM, the TGI (SK-OV-3 ovarian) was 12 µM and the GI50 (UACC-257 melanoma) was 0.285 µM. It also gave a TGI (UACC-257 melanoma) of 0.884 µM, a GI50 (OVCAR-8 ovarian) of 6.35 µM and a TGI (OVCAR-8 ovarian) of 19.5 µM. It also gave a GI50 (SK-MEL-2 melanoma) of 2.98 µM, a TGI (SK-MEL-2 melanoma) of 11.9 µM and a GI50 (TK-10 renal) of 0.13 µM. The TGI (TK-10 renal) was 12.6 µM, the GI50 (IGROV1 ovarian) was 0.0154 µM and the TGI (IGROV1 ovarian) was 0.0561 µM. The GI50 (COLO 205 colon) was 6.39 µM, the TGI (COLO 205 colon) was 18 µM and the GI50 (SF-268 CNS) was 6.37 µM. The TGI (SF-268 CNS) was 18.9 µM, the GI50 (SW-620 colon) was 2.56 µM and the TGI (SW-620 colon) was 11.5 µM. The GI50 (RXF 393 renal) was 8.49 µM, the TGI (RXF 393 renal) was 20.7 µM and the GI50 (HOP-92 NSCLC) was 4.95 µM. The TGI (HOP-92 NSCLC) was 15.7 µM, the GI50 (SF-539 CNS) was 2.27 µM and the TGI (SF-539 CNS) was 4.54 µM. It also gave a GI50 (DU-145 prostate) of 12.5 µM, a TGI (DU-145 prostate) of 25 µM and a GI50 (ACHN renal) of 11.2 µM. It also gave a TGI (ACHN renal) of 23.3 µM, a GI50 (PC-3 prostate) of 13.3 µM and a TGI (PC-3 prostate) of 26.1 µM. For the same compound, the GI50 (K-562 leukemia) was 1.09 µM, the TGI (K-562 leukemia) was 2.85 µM and the TGI (MDA-MB-468 breast) was 0.0175 µM. The GI50 (RPMI-8226 leukemia) was 0.804 µM, the TGI (RPMI-8226 leukemia) was 3.31 µM and the GI50 (NCI-H522 lung) was 4.75 µM. The TGI (NCI-H522 lung) was 18.6 µM, the GI50 (HCC-2998 colon) was 11.7 µM and the TGI (HCC-2998 colon) was 24 µM. The GI50 (BT-549 breast) was 5.47 µM, the TGI (BT-549 breast) was 17.9 µM and the GI50 (SR leukemia) was 1.52 µM. The TGI (SR leukemia) was 2.89 µM, the GI50 (SNB-19 CNS) was 11.3 µM and the TGI (SNB-19 CNS) was 23.4 µM. The GI50 (U251 glioblastoma) was 1.26 µM, the TGI (U251 glioblastoma) was 2.6 µM and the GI50 (UO-31 renal) was 11.1 µM. The TGI (UO-31 renal) was 23.1 µM, the GI50 (NCI-H460 NSCLC) was 0.37 µM and the TGI (NCI-H460 NSCLC) was 2.03 µM. It also gave a GI50 (OVCAR-5 ovarian) of 0.046 µM, a TGI (OVCAR-5 ovarian) of 12 µM and a GI50 (NCI-H322M lung) of 9.87 µM. The TGI (NCI-H322M lung) was 21.5 µM, the GI50 (NCI-H226 lung) was 0.0195 µM and the TGI (NCI-H226 lung) was 0.128 µM. For the same compound, the GI50 (UACC-62 melanoma) was 0.618 µM, the TGI (UACC-62 melanoma) was 16 µM and the GI50 (LOX IMVI melanoma) was 10.2 µM. It also gave a TGI (LOX IMVI melanoma) of 21.9 µM, a GI50 (KM12 colon) of 2.31 µM and a TGI (KM12 colon) of 5.46 µM. For the same compound, the GI50 (A549 NSCLC) was 1.72 µM, the TGI (A549 NSCLC) was 17.1 µM and the GI50 (MALME-3M melanoma) was 4.61 µM. The TGI (MALME-3M melanoma) was 12.1 µM, the GI50 (SN12C renal) was 10.3 µM and the TGI (SN12C renal) was 22 µM. For the same compound, the GI50 (SK-MEL-5 melanoma) was 0.378 µM, the TGI (SK-MEL-5 melanoma) was 12.4 µM and the GI50 (SK-MEL-28 melanoma) was 13.4 µM. The TGI (SK-MEL-28 melanoma) was 26.2 µM, the GI50 (CCRF-CEM leukemia) was 1.6 µM and the TGI (CCRF-CEM leukemia) was 3.08 µM. The GI50 (M14 melanoma) was 2.86 µM, the TGI (M14 melanoma) was 6.82 µM and the GI50 (MDA-MB-231 breast) was 5.54 µM. The TGI (MDA-MB-231 breast) was 17.4 µM, the GI50 ([…]-0 renal) was 9.12 µM and the TGI (786-0 renal) was 21.3 µM. For the same compound, the GI50 (HT29 colon) was 13.2 µM, the TGI (HT29 colon) was 26 µM and the GI50 (HCT-116 colon) was 1.01 µM. The TGI (HCT-116 colon) was 2.57 µM, the GI50 (HCT-15 colon) was 8.41 µM and the TGI (HCT-15 colon) was 20.6 µM. It also gave a GI50 (CAKI-1 renal) of 1.52 µM, a TGI (CAKI-1 renal) of 19.5 µM and a GI50 (HL-60(TB) leukemia) of 0.878 µM. For the same compound, the TGI (HL-60(TB) leukemia) was 15.4 µM, the GI50 (MOLT-4 leukemia) was 1.57 µM and the TGI (MOLT-4 leukemia) was 2.91 µM. The GI50 (MCF7 breast) was 0.0266 µM, the TGI (MCF7 breast) was 0.146 µM and the GI50 (NCI/ADR-RES ovarian) was 12.7 µM. For the same compound, the TGI (NCI/ADR-RES ovarian) was 25.3 µM, the GI50 (MDA-MB-435 melanoma) was 3.27 µM and the TGI (MDA-MB-435 melanoma) was 8.1 µM.
